PubChem BioAssay (NCI)
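Five compound concentrations were applied to cells in 96-well plates for 48 hours; endpoints were derived by simple linear interpolation of the resulting dose-response curve. Definition used: TGI = concentration required for complete inhibition of growth.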

Columns and labels:
Test in all cases: growth of human tumour cells (NCI), 48 h
[1] = test system: ACHN renal
[2] = test system: DU-145 prostate
[3] = test system: HCT-15 colon
[4] = test system: HT29 colon
[5] = test system: IGROV1 ovarian
[6] = test system: MDA-MB-435
[7] = test system: MOLT-4 leukemia
[8] = test system: OVCAR-3 ovarian
[9] = test system: OVCAR-8 ovarian
[10] = test system: SK-MEL-2 melanoma

## CC1=CC2(C)C=C[C@@H]1C(=O)[C@@]1(C)CC[C@@](O)(C(C)C)[C@H]1CC2
[1]
  TGI: 45.9 µM
[2]
  TGI: 72.1 µM
[3]
  TGI: 55.8 µM
[4]
  TGI: 32.6 µM
[5]
  TGI: 51.7 µM
[6]
  TGI: 43.2 µM
[7]
  TGI: 51.9 µM
[8]
  TGI: 32.2 µM
[9]
  TGI: 32.6 µM
[10]
  TGI: 77 µM

## COC1(OC)CCN(Cc2ccccc2)C1=O
[1]
  TGI: 19.7 µM
[2]
  TGI: 29.2 µM
[3]
  TGI: 38.6 µM
[4]
  TGI: 21.4 µM
[5]
  TGI: 26.8 µM
[6]
  TGI: 29.8 µM
[7]
  TGI: > 100 µM
[8]
  TGI: 23.7 µM
[9]
  TGI: 17.9 µM
[10]
  TGI: 34 µM

## Nc1ncnc2c1ccn2CC#CCO
[1]
  TGI: > 100 µM
[2]
  TGI: > 100 µM
[3]
  TGI: > 100 µM
[4]
  TGI: > 100 µM
[5]
  TGI: > 100 µM
[6]
  TGI: > 100 µM
[7]
  TGI: > 100 µM
[8]
  TGI: > 100 µM
[9]
  TGI: > 100 µM
[10]
  TGI: > 100 µM

## C1=NN2C(c3ccccc3)=NOC2C2C(c3ccccc3)=NOC12 (configuration not stated)
[1]
  TGI: > 100 µM
[2]
  TGI: > 100 µM
[3]
  TGI: > 100 µM
[5]
  TGI: > 100 µM
[8]
  TGI: > 100 µM
[9]
  TGI: > 100 µM

## NC(=O)C1=C(O)[C@@]2(O)C(=O)C3=C(O)c4c(O)cccc4CC3C[C@H]2CC1=O (some centres not stated)
[1]
  TGI: 19.5 µM
[2]
  TGI: 18.6 µM
[3]
  TGI: 6.21 µM
[4]
  TGI: 7.34 µM
[5]
  TGI: 12.5 µM
[6]
  TGI: 40.2 µM
[7]
  TGI: 10.6 µM
[8]
  TGI: 14.7 µM
[9]
  TGI: 17.3 µM
[10]
  TGI: 4.72 µM

## O=C(c1ccccc1)c1ccc(N2C(=O)/C(=C/c3cccc(Oc4ccccc4)c3)N=C2c2ccccc2)c(N2C(=O)/C(=C/c3cccc(Oc4ccccc4)c3)N=C2c2ccccc2)c1
[1]
  TGI: > 100 µM
[2]
  TGI: > 100 µM
[3]
  TGI: > 100 µM
[4]
  TGI: > 100 µM
[5]
  TGI: > 100 µM
[6]
  TGI: 31.5 µM
[7]
  TGI: > 100 µM
[8]
  TGI: 69.8 µM
[9]
  TGI: > 100 µM
[10]
  TGI: 71.2 µM

## Cc1c(-c2coc(-c3ccc([N+](=O)[O-])cc3)n2)c(=O)n(-c2ccccc2)n1C
[1]
  TGI: > 100 µM
[3]
  TGI: > 100 µM
[4]
  TGI: > 100 µM
[5]
  TGI: > 100 µM
[7]
  TGI: > 100 µM
[8]
  TGI: > 100 µM
[9]
  TGI: > 100 µM
[10]
  TGI: > 100 µM

## COc1ccc(/C=C2/SC(=Nc3ccccc3)N(NC(=O)Cc3ccccc3)C2=O)cc1
[1]
  TGI: > 100 µM
[2]
  TGI: > 100 µM
[3]
  TGI: > 100 µM
[4]
  TGI: > 100 µM
[5]
  TGI: > 100 µM
[6]
  TGI: > 100 µM
[7]
  TGI: > 100 µM
[8]
  TGI: > 100 µM
[9]
  TGI: > 100 µM
[10]
  TGI: > 100 µM

## COc1nc(=O)[nH]c2c1C(c1ccc([N+](=O)[O-])cc1)c1c(OC)nc(=O)[nH]c1O2
[1]
  TGI: > 100 µM
[2]
  TGI: > 100 µM
[3]
  TGI: > 100 µM
[4]
  TGI: > 100 µM
[5]
  TGI: > 100 µM
[6]
  TGI: > 100 µM
[7]
  TGI: > 100 µM
[8]
  TGI: > 100 µM
[9]
  TGI: > 100 µM
[10]
  TGI: > 100 µM

## Cc1n[nH]c(=O)n1/N=C/c1ccco1
[1]
  TGI: > 100 µM
[2]
  TGI: > 100 µM
[3]
  TGI: > 100 µM
[4]
  TGI: > 100 µM
[6]
  TGI: > 100 µM
[7]
  TGI: > 100 µM
[8]
  TGI: > 100 µM
[9]
  TGI: > 100 µM
[10]
  TGI: > 100 µM

## CN1C(=O)C(=Cc2ccc(Br)cc2)C(=O)N(C)C1=O
[1]
  TGI: > 100 µM
[2]
  TGI: > 100 µM
[3]
  TGI: > 100 µM
[6]
  TGI: > 100 µM
[7]
  TGI: > 100 µM
[8]
  TGI: > 100 µM
[10]
  TGI: > 100 µM

## O=C1CCC(=O)c2ccccc2N1
[1]
  TGI: > 100 µM
[3]
  TGI: > 100 µM
[4]
  TGI: > 100 µM
[5]
  TGI: > 100 µM
[7]
  TGI: > 100 µM
[8]
  TGI: > 100 µM
[9]
  TGI: > 100 µM
[10]
  TGI: > 100 µM

## N#Cc1c(C#N)c(SSc2c(C#N)c(C#N)c(N)n2-c2cccc3ccccc23)n(-c2cccc3ccccc23)c1N
[1]
  TGI: 13.1 µM
[2]
  TGI: 47.6 µM
[3]
  TGI: 4.01 µM
[4]
  TGI: 39.2 µM
[5]
  TGI: > 100 µM
[6]
  TGI: 36.5 µM
[7]
  TGI: > 100 µM
[9]
  TGI: > 25.3 µM
[10]
  TGI: 34.8 µM

## CC(=Nc1ccc(Cl)cc1)c1ccncc1
[1]
  TGI: > 100 µM
[2]
  TGI: > 100 µM
[3]
  TGI: > 100 µM
[4]
  TGI: > 100 µM
[6]
  TGI: > 100 µM
[7]
  TGI: > 100 µM
[8]
  TGI: > 100 µM
[9]
  TGI: > 100 µM
[10]
  TGI: > 100 µM

## Nc1ccc(Oc2ccc(C34CC5C6CC7(c8ccc(Oc9ccc(N)cc9)cc8)CC5C(C3)C(C7)C6C4)cc2)cc1
[1]
  TGI: > 100 µM
[2]
  TGI: > 100 µM
[3]
  TGI: > 100 µM
[4]
  TGI: > 100 µM
[5]
  TGI: > 100 µM
[6]
  TGI: > 100 µM
[7]
  TGI: > 100 µM
[8]
  TGI: > 100 µM
[9]
  TGI: > 100 µM
[10]
  TGI: > 100 µM

## COc1cc2ccnc(C#N)c2cc1OCc1ccccc1
[1]
  TGI: > 100 µM
[3]
  TGI: > 100 µM
[4]
  TGI: > 100 µM
[7]
  TGI: > 100 µM
[8]
  TGI: > 100 µM
[9]
  TGI: > 100 µM
[10]
  TGI: > 100 µM

## O=c1[nH]c(=O)n([C@H]2C[C@@H](CO)[C@@H](O)C2)cc1I
[1]
  TGI: > 100 µM
[3]
  TGI: > 100 µM
[4]
  TGI: > 100 µM
[5]
  TGI: > 100 µM
[7]
  TGI: > 100 µM
[8]
  TGI: > 100 µM
[9]
  TGI: > 100 µM
[10]
  TGI: > 100 µM

## COc1ccccc1N1CCN(S(=O)(=O)c2ccc(Cl)cc2)C1=N
[1]
  TGI: > 100 µM
[2]
  TGI: > 100 µM
[3]
  TGI: > 100 µM
[6]
  TGI: > 100 µM
[7]
  TGI: > 100 µM
[8]
  TGI: > 100 µM
[9]
  TGI: > 100 µM
[10]
  TGI: > 100 µM

## COP12(OC)NC(=O)OC1(C(F)(F)F)c1ccccc1O2 (configuration not stated)
[1]
  TGI: > 100 µM
[3]
  TGI: > 100 µM
[4]
  TGI: > 100 µM
[5]
  TGI: > 100 µM
[7]
  TGI: > 100 µM
[8]
  TGI: > 100 µM
[9]
  TGI: > 100 µM
[10]
  TGI: > 100 µM
